Results published in EP2689847A1, “Methods for catalytic alkylation of nucleic acids” (Universität Basel, priority 2012, dated 2014).

Assay: water solubility of α-diazocarbonyl substrates under the conditions of the oligonucleotide modification reaction
Type: physicochemical
Settings: aqueous reaction mixture, 100 mM MES buffer, pH 6.0, 50 mM α-diazocarbonyl compound
Text: A number of a-diazocarbonyl substrates were screened as potential candidates for the target reaction of oligonucleotide modification (Table 4). […] Increasing the bulkiness of the ester moiety appeared to have a negative effect on the yields of modified oligonucleotide as for entry 2 the efficacy of modification was reduced twice in comparison to the methyl ester counterpart (entry 1) and with the compound from entry 7 only trace amounts of modified oligonucleotide were isolated.
General procedure for Rh2(OAc)4-catalyzed oligonucleotide modification using a-diazocarbonyl compounds. Typically […] reaction mixtures containing 5 mM oligonucleotide, […] Rh2(OAc)4 and 50 mM a-diazocarbonyl compound in 100 mM MES buffer, pH 6.0 were kept at 20 °C for 24-72 h. Analysis of the reaction products was carried out by micropreparative HPLC-separation of 5-ml aliquots of the reaction mixtures using method A. The collected peak fractions were further assessed by ESI-MS or MALDI TOF.

Row | water solubility under the conditions of the analysis | Structure (SMILES)
1 | sufficiently water-soluble | C#CCN1CCN(CCOCCOCCOCCN2CCN(Cc3ccc(C(=[N+]=[N-])C(=O)OC)cc3)CC2)CC1 [Dz-2, Methyl2-diazo-2-(4-((4-(2-(2-(2-(2-(4-(prop-2-yn-1-yl)piperazin-1-yl)ethoxy)ethoxy)ethoxy)ethyl)piperazin-1-yl)methyl)phenyl)acetate]
2 | sufficiently water-soluble | CCOC(=O)C(=[N+]=[N-])c1ccc(CN(C)C)cc1 [entry 2]
3 | sufficiently water-soluble | COC(=O)C(=[N+]=[N-])c1ccc(CN(C)C)cc1 [Dz-1, Methyl 2-diazo-2-(4-((dimethylamino)methyl)phenyl)acetate]
